From patent US5773438A, “Synthetic matrix metalloprotease inhibitors and use thereof” (Glycomed Incorporated, priority 1994, dated 1998)

Legend:
[1] = test system: PdiBu-Induced Epidermal Hyperplasia; test: PdiBu-induced epidermal hyperplasia mouse model (psoriasis); type: in vivo, hairless mice
Procedure: The phorbol ester, PdiBu (20 nmol in 20 μl if acetone) was applied to both ears of hairless mice (h/h) (approximately 1 cm^2 each). The test compounds (in total volume of 20 μl) were then applied to the right ear immediately (15 to 30 min) following PdiBu. The left ear of each animal received an equivalent amount (20 μl) of vehicle. Test compounds (and vehicle) were reapplied at 6 and 18 hours following PdiBu. Treatment times were staggered to allow exact time intervals to be obtained. At 30 hours after PdiBu, animals were anesthetized, and ear thickness values were obtained using a microcaliper. The weights of punch biopsies (6mm) were then obtained. Histology was performed on selected samples taken at 30 hours.
Left ear in each animal served as vehicle-treated controls (PdiBu+ETOH). Thus, the controls for this series include: 1) Untreated controls; 2) PdiBu plus vehicle alone (included for each mouse tested); 3) PdiBu plus AHA; 4) PdiBu plus Lidex® as a positive control.

MMPs = conditions: cited from earlier work

CC(=O)NO [AHA, acetohydroxamic acid, reference compound]
ear thickness (AHA control) ([1]; PdiBu + AHA, 0.53 μmol/ear at 0.25, 6.0 and 24 hours): 36.8 ± 1.3 inch × 10^-3
biopsy weight (AHA control) ([1]; PdiBu + AHA, 0.53 μmol/ear at 0.25, 6.0 and 24 hours, in mg): 24.1 ± 1.2
ear thickness (positive control section) ([1]; Positive Control: Lidex (fluocinonide) section, single experiment): 15.8 ± 0.4
biopsy weight (positive control section) ([1]; Positive Control: Lidex (fluocinonide) section, single experiment, in mg): 9.7 ± 0.3
effect on PdiBu-induced ear thickness ([1]; topical): did not alter
effect on PdiBu-induced increase in punch biopsy weight ([1]; topical): did not alter
inhibitory effects on MMPs (MMPs): devoid of inhibitory effects on MMPs
